Experimental findings from patent publication US20240208954A1, “OXADIAZOLE COMPOUND, PREPARATION METHOD THEREFOR, PHARMACEUTICAL COMPOSITION AND USE THEREOF” (SHANGHAI INSTITUTE OF MATERIA MEDICA, CHINESE ACADEMY OF …, priority 2020, published 2024) are described below.

Data set [1] has as its target S1P2 (Homo sapiens, UniProt O95136). The data set can be described thus: Subtype selectivity study, method of Experimental Example 1. Type of data set: cell-based. The method, then:
(§1) Experimental method: CHO-K1/Ga15/EDG1 cells stably expressing EDG1 receptor were cultured in a 10 cm culture dish in a 37° C./5% CO2incubator, and digested when the confluence rate reached 80%-85%. The cells in collected cell suspension were inoculated into 384 microtiter plates at appropriate density, and then placed in a 37° C./5% CO2 incubator and continue to incubate for at least 18 hours before using for experiments. After 18-20 hours, the cell culture plat was taken out and added with dye working solution, and then the plate was placed in a 37° C./5% CO2 incubator for 1 hour, and finally equilibrated at room temperature for 15 minutes. Positive agonist working solution was added, and RFU values were detected and recorded. The 384 microplates, cell plates and tip box with positive agonist working solution were placed into FLIPRTM TETRA and the agonist mode assay program was run with an overall assay time of 120 seconds. The positive agonist working fluid was added to the cell culture plate at the 21st second. 384 microplate, cell plate and gun head box containing the positive antagonist working fluid were put into the FLIPRTM TETRA. The antagonistic mode detection program, the overall detection time of the instrument was 120 seconds, and positive antagonist working solution was added to the cell culture plate at the 21st second. Data processing: Raw data were obtained via ScreenWorks (version 3.1) and saved as *FMD files on the […] computer network system. Data were collected and analyzed using Excel and GraphPad Prism 6 software programs. […] The four-parameter equation was as follows: y=Bottom+(Top-Bottom)/(1+10^((LogEC50/IC50-X)*HillSlope)), wherein X is the Log value of the concentration and Y was the inhibition rate. The S1P receptor selectivity was tested for different subtypes using the method described in Experimental Example 1.

Data set [2] has as its target T1, S1P4 (Homo sapiens, UniProt O95977).
T1 sequence (O95977 1-384): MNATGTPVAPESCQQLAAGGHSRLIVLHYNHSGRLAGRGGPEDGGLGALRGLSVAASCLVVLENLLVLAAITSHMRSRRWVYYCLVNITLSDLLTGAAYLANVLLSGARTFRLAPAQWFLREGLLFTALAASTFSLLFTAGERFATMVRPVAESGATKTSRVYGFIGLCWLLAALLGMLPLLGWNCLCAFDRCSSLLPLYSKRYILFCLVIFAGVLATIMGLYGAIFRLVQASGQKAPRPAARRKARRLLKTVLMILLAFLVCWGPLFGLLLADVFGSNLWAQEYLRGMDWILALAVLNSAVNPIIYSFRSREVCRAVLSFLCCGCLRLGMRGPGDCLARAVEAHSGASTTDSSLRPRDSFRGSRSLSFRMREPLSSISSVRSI
Described as above. The format is cell-based. The method, then: as §1

The target of data set [3] is S1P5 (Homo sapiens, UniProt Q9H228). Described as above. Type of data set: cell-based. The method, then: as §1
Data set [4] has as its system dextran sodium sulfate (DSS)-induced IBD model. As to the kind of experiment: Pharmacological activity test in DSS-induced IBD model. The format is in vivo, mice. The method, then:
The mice were randomly divided into […]: normal control group (Control,n=5), model control group (Model,n=11), positive compound BAF312 group (0.3 mg/kg,n=10), low dose group (0.03 mg/kg,n=10), medium dose group (0.3 mg/kg,n=10), high dose group (3 mg/kg, n=10), and each group was administered by gavage in a volume of 5 mL/kg once a day. DSS with an average molecular weight of 36000˜50000 Da was dissolved in drinking water to make 2% DSS solution, and the mice in the modeling group were allowed to drink it freely for 6 days, while the drug administration treatments were carried out simultaneously. The body weight, fecal hardness and occult blood of mice in each group were observed every day, and the scores of each index were summed to obtain the disease activity index of each animal. After 6 days of completion of modeling and drug administration, the modeling reagents were withdrawn for a 1-day remission period, and the mice were sacrificed by dislocation after blood was taken via the posterior ophthalmic plexus. Colon tissue and spleen were measured for length or weighed, part of the colon was fixed in 4% paraformaldehyde, and all tissues and serum were stored at −80° C.

Entries after “also recorded” stand apart in the source; their conditions may differ.

Chain of S1P2 (O95136 whole entry, species assumed): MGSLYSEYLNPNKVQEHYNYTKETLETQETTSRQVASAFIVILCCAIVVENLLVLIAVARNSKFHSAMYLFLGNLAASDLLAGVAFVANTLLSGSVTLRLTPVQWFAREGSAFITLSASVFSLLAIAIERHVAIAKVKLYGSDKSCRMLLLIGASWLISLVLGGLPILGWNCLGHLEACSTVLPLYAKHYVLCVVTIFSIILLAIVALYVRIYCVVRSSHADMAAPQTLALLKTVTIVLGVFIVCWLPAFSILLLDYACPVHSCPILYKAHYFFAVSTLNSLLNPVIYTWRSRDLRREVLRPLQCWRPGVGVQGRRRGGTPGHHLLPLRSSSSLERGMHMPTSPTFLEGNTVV
Chain of S1P5 (Q9H228 whole entry, species assumed): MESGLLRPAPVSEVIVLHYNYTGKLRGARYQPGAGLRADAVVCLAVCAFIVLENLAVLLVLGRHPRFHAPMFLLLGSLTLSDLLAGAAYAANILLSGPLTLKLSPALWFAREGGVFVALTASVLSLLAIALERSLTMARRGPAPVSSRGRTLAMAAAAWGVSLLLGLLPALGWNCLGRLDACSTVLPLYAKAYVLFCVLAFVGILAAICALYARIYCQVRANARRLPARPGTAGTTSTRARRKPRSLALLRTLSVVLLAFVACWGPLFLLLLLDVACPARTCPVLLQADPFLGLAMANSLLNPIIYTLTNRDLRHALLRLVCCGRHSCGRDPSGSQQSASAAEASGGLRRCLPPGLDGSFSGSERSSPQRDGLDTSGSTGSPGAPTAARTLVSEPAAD

For the compound `CC(C)Oc1ccc(-c2nc(-c3ccc(CN4CC(C(=O)O)C4)c4ccccc34)no2)cc1C#N.Cl` [Compound A1, 1-((4-(5-(3-cyano-4-isopropoxyphenyl)-1,2,4-oxadiazol-3-yl)naphthalen-1-yl)methyl) azetidine-3-carboxylic acid hydrochloric acid], the EC50 was more than 10 µM in data set [1], more than 10 µM in data set [2] and 0.12 µM in data set [3]. In data set [4] (H&E-stained colon sections, high/medium doses (3/0.3 mg/kg)), the “impaired crypt and inflammatory infiltration in colon sites” value is given as “effectively improve”. Besides, the “overall effect in the IBD model” value in data set [4] (concluding statement) was “significant anti-inflammatory as well as pathological ameliorating effects”. Besides, in data set [4] (high/medium/low doses), the “weight of the spleen” value is “without affecting”. Further, the “disease process (weight change, stool consistency, rectal bleeding, disease activity index)” value in data set [4] (high/medium/low doses (3/0.3/0.03 mg/kg), gavage once a day, to different degrees) was “effective in alleviating; also recorded: alleviated”. Further, in data set [4] (high/medium/low doses (3/0.3/0.03 mg/kg), to different degrees), the “shorten of colon length” value is reported as “effective in alleviating”.
